Patent US20110028566A1, “COMPOSITIONS AND PRODUCTS CONTAINING CYCLOALIPHATIC DIOL ANTIMICROBIAL AGENTS AND METHODS OF USING THE COMPOSITIONS AND PRODUCTS” (EASTMAN CHEMICAL COMPANY, priority 2009, published 2011)

How the values were obtained:
Assay in all cases: Microbial challenge testing in BPW
Format in all cases: cell-based
Escherichia coli = details: 0.2%
Experimental: (§1) The microorganisms used in challenge tests are given in Table 3, designated as either ATCC (American Type Culture Collection) or wild type. These wild type organisms were problematic organisms previously isolated from chemical products. In the description for each organism, the bacteria are indicated as either GN (Gram negative) or GP (Gram positive).
(§2) All of the microorganisms were grown in Tryptose Soy Broth (TSB), DIFCO™ available from Becton, Dickinson and Company, containing 1% dextrose. Aspergillus niger and Candida albicans were incubated at 22° C.±2° C. for at least 96 hours. All bacteria were incubated at 35° C.±2° C. in a humidified incubator for at least 96 hours.
(§3) The following procedure was followed to determine the amount of each challenge material (inoculum broth) required to produce a 10^8 cfu/mL challenge, which is equivalent to a final test-sample microbial concentration of 10^5 to 10^6 cfu (colony-forming units)/mL.
(§4) Using a sterile serological pipette, 1 mL of the growth from each TSB culture was transferred into tubes containing 9 mL phosphate buffer (pH 7.2) and mixed thoroughly. This process was repeated to make serial 1:10 dilutions. Then 0.1 mL of each sample and dilution was inoculated onto agar plates to produce the equivalent of a further 1:10 dilution. C. albicans and A. niger were inoculated onto SDA and bacteria were inoculated onto Plate Count Agar (PCA), DIFCO™ available from Becton, Dickinson and Company. The 0.1 mL aliquots were evenly distributed on the plates using the spread-plate technique. The spread-plate technique is performed by spreading the aliquot over the entire plate surface using a sterile spreading rod while rotating the plate with a rotary auto-plater. After the inoculum was absorbed completely, each plate was inverted and incubated (fungi at 22° C.±2° C. and bacteria at 35° C.±2° C.).
(§5) After incubation for at least 48 hours, colonies that had developed on the agar plates were counted and recorded with the corresponding dilution. If counting had to be delayed temporarily, plates were refrigerated, preferably no more than 24 hours, until they could be counted. The number of cfu/mL was determined by multiplying the count by the dilution factor for that particular plate.
(§6) Turbidity in Nepholemetric Turbidity Units (NTU) was measured for each serial dilution using the HF-Micro 100 Model Turbidimeter. For each microorganism, the plate counts were compared to the turbidity readings.
(§7) Control substrates (“broth alone”) were prepared for each microorganism separately in triplicate by adding 13.5 mL of BPW (pH 7.0) containing 1% (w/v) dextrose to each 20-mL glass tube; then adding 1.5 mL challenge material to produce a final concentration at time zero of 10^5 to 10^6 cfu/mL and a total volume of 15 mL.
(§8) Test sample substrates were prepared containing each test material (1,4-CHDM, etc) or combination of test materials at the concentrations shown in Tables 5 and 6. Sample substrates were prepared in triplicate, except those substrates containing PE or CG which were prepared in duplicate. Substrates were prepared by adding BPW containing 1% (w/v) dextrose to each 20-mL glass tube, then adding the test material in the amount appropriate to achieve the desired weight/volume percent (g/100 mL) and to obtain a total volume of BPW with dextrose and test material of 13.5 mL. Then 1.5 mL challenge material was added to produce a final concentration at time zero of 10^5 to 10^6 cfu/mL of the respective organism and a total test sample substrate volume of 15 mL.
(§9) After mixing, all challenged substrates were incubated at 35° C.±2° C. for 14 days and then at ambient room temperature.

Proteus vulgaris = system: Proteus vulgaris
Experimental: as §1, §2, §3, §4, §5, §6, §7, §8, §9

Pseudomonas aeruginosa = system: Pseudomonas aeruginosa
Experimental: as §1, §2, §3, §4, §5, §6, §7, §8, §9

Staphylococcus aureus = system: Staphylococcus aureus
Experimental: as §1, §2, §3, §4, §5, §6, §7, §8, §9

[1] = system: Staphylococcus epidermidis
Experimental: as §1, §2, §3, §4, §5, §6, §7, §8, §9

Streptococcus mutans = system: Streptococcus mutans
Experimental: as §1, §2, §3, §4, §5, §6, §7, §8, §9

SMILES: O=c1[nH]sc2ccccc12 [BIT, 1,2-benzisothiazolin-3-one]
- Grade code E. coli (Escherichia coli; 3 days incubation): 1 (1 to 51 colonies counted (thus 10 to 510 cfu/mL))
- Grade code E. coli (Escherichia coli; 14 days incubation): 0 (No growth detected or <1 colony (thus <10 cfu/mL))
- Grade code E. coli (Escherichia coli; 30 days incubation): 0 (No growth detected or <1 colony (thus <10 cfu/mL))
- Grade code P. vulqaris (Proteus vulgaris; 0.05%, 3 days incubation): 4 (1001 to 10,000 colonies (thus 10,000 cfu/mL to 100,000 cfu/mL))
- Grade code P. vulqaris (Proteus vulgaris; 0.05%, 13 days incubation): 4 (1001 to 10,000 colonies (thus 10,000 cfu/mL to 100,000 cfu/mL))
- Grade code P. vulqaris (Proteus vulgaris; 0.05%, 30 days incubation): 4 (1001 to 10,000 colonies (thus 10,000 cfu/mL to 100,000 cfu/mL))
- Grade code P. vulqaris (Proteus vulgaris; 0.2%, 3 days incubation): 4 (1001 to 10,000 colonies (thus 10,000 cfu/mL to 100,000 cfu/mL))
- Grade code P. vulqaris (Proteus vulgaris; 0.2%, 13 days incubation): 2 (52 to 100 colonies counted (thus 520 to 1000 cfu/mL))
- Grade code P. vulqaris (Proteus vulgaris; 0.2%, 30 days incubation): 0 (No growth detected or <1 colony (thus <10 cfu/mL))
- Grade code P. aeruginosa (Pseudomonas aeruginosa; 0.05%, 3 days incubation): 4 (1001 to 10,000 colonies (thus 10,000 cfu/mL to 100,000 cfu/mL))
- Grade code P. aeruginosa (Pseudomonas aeruginosa; 0.05%, 13 days incubation): 4 (1001 to 10,000 colonies (thus 10,000 cfu/mL to 100,000 cfu/mL))
- Grade code P. aeruginosa (Pseudomonas aeruginosa; 0.05%, 30 days incubation): 4 (1001 to 10,000 colonies (thus 10,000 cfu/mL to 100,000 cfu/mL))
- Grade code P. aeruginosa (Pseudomonas aeruginosa; 0.2%, 3 days incubation): 3 (101 to 1000 colonies (thus 1000 to 10,000 cfu/mL))
- Grade code P. aeruginosa (Pseudomonas aeruginosa; 0.2%, 13 days incubation): 4 (1001 to 10,000 colonies (thus 10,000 cfu/mL to 100,000 cfu/mL))
- Grade code P. aeruginosa (Pseudomonas aeruginosa; 0.2%, 30 days incubation): 4 (1001 to 10,000 colonies (thus 10,000 cfu/mL to 100,000 cfu/mL))
- Grade code S. aureus (Staphylococcus aureus; 0.05%, 3 days incubation): 4 (1001 to 10,000 colonies (thus 10,000 cfu/mL to 100,000 cfu/mL))
- Grade code S. aureus (Staphylococcus aureus; 0.05%, 14 days incubation): 4 (1001 to 10,000 colonies (thus 10,000 cfu/mL to 100,000 cfu/mL))
- Grade code S. aureus (Staphylococcus aureus; 0.05%, 30 days incubation): 4 (1001 to 10,000 colonies (thus 10,000 cfu/mL to 100,000 cfu/mL))
- Grade code S. aureus (Staphylococcus aureus; 0.2%, 3 days incubation): 4 (1001 to 10,000 colonies (thus 10,000 cfu/mL to 100,000 cfu/mL))
- Grade code S. aureus (Staphylococcus aureus; 0.2%, 14 days incubation): 3 (101 to 1000 colonies (thus 1000 to 10,000 cfu/mL))
- Grade code S. aureus (Staphylococcus aureus; 0.2%, 30 days incubation): 3 (101 to 1000 colonies (thus 1000 to 10,000 cfu/mL))
- Grade code S. epidermidis ([1]; 0.05%, 3 days incubation): 4 (1001 to 10,000 colonies (thus 10,000 cfu/mL to 100,000 cfu/mL))
- Grade code S. epidermidis ([1]; 0.05%, 13 days incubation): 4 (1001 to 10,000 colonies (thus 10,000 cfu/mL to 100,000 cfu/mL))
- Grade code S. epidermidis ([1]; 0.05%, 30 days incubation): 4 (1001 to 10,000 colonies (thus 10,000 cfu/mL to 100,000 cfu/mL))
- Grade code S. epidermidis ([1]; 0.2%, 3 days incubation): 4 (1001 to 10,000 colonies (thus 10,000 cfu/mL to 100,000 cfu/mL))
- Grade code S. epidermidis ([1]; 0.2%, 13 days incubation): 2 (52 to 100 colonies counted (thus 520 to 1000 cfu/mL))
- Grade code S. epidermidis ([1]; 0.2%, 30 days incubation): 2 (52 to 100 colonies counted (thus 520 to 1000 cfu/mL))
- Grade code S. mutans (Streptococcus mutans; 0.05%, 3 days incubation): 1.7
- Grade code S. mutans (Streptococcus mutans; 0.05%, 13 days incubation): 0 (No growth detected or <1 colony (thus <10 cfu/mL))
- Grade code S. mutans (Streptococcus mutans; 0.05%, 30 days incubation): 0 (No growth detected or <1 colony (thus <10 cfu/mL))
- Grade code S. mutans (Streptococcus mutans; 0.2%, 3 days incubation): 0 (No growth detected or <1 colony (thus <10 cfu/mL))
- Grade code S. mutans (Streptococcus mutans; 0.2%, 13 days incubation): 0 (No growth detected or <1 colony (thus <10 cfu/mL))
- Grade code S. mutans (Streptococcus mutans; 0.2%, 30 days incubation): 0 (No growth detected or <1 colony (thus <10 cfu/mL))
- Effectiveness against S. mutans (in words) (Streptococcus mutans; BIT alone): highly effective
